Results: patent US20100209959A1, “TUMOUR-CELL-FIXING CELLS” (UNIVERSITE PIERRE ET MARIE CURIE-PARIS VI, priority 2007, published 2010)

Legend:
[1] = test system: OVCAR3 cells; experiment: Chemoresistance of OVCAR3 cells co-cultured with hospicells (SRB assay); assay type: cell-based; details: verapamil 1.4 μM added, in the presence of carboplatin and paclitaxel
Protocol: Briefly, the hospicells were cultivated to 60% confluence. 2·10^4 OVCAR3 cells expressing GFP were then co-cultivated with the hospicells for 24 hours before being brought into contact with a chemotherapeutic agent (carboplatin 22.2 μM and paclitaxel 1.4 μM). The chemotherapeutic effect was determined with the aid of a quantitative colorimetric assay with sulforhodamine B (SRB) as described by Skehan et al. (1990) J. Natl. Cancer Inst. 82:1107-1112. The pink colour of the SRB was quantified by measuring the absorbance at 540 nm. For each condition, the mean cell density and the standard deviation were calculated from the data obtained for 6 wells. The experiments were repeated 3 times.
The role of the MDR proteins in the chemoresistance imparted by the hospicells was confirmed by repeating the above co-culture experiments of hospicells and OVCAR3 cells in the presence of carboplatin and paclitaxel, and adding to the culture medium verapamil (1.4 μM), an MDR1 protein inhibitor.

[2] = test system: HL60 cells; experiment: Proliferation of HL60 cells, free or fixed to hospicells, after exposure to AraC or DNR; assay type: cell-based, human; details: for living HL60 cells fixed to the hospicells during treatment / living free HL60 cells during treatment: 5 days' treatment; for living HL60 cells fixed to the hospicells during treatment / living HL60 cells on hospicells after the treatment is stopped: HL60 fixed to hospicells; for living HL60 cells on hospicells after the treatment is stopped / growth of free HL60 cells after the treatment is stopped: drug removed, fresh medium
Protocol: (§1) HL60 cells cultured with hospicells in RPMI medium were treated for 5 days with either aracytin (AraC) or daunorubicin (DNR).
After 5 days' treatment, the drug was removed and the cells were cultured again in fresh medium.
The number of living HL60 cells was measured throughout the experiment using the image analysis system.

[3] = test system: HL60 cells; experiment: Adhesion of HL60 cells to hospicells; assay type: cell-based, human; details: HL60 incubated beforehand with agent; tumour cells/hospicells 5/1; 24 hours at 37° C.
Protocol: HL60 cells were incubated in RPMI medium under […]: • HL60 cells alone (control) • HL60 cells+anti-arrestin antibody (control antibody) • HL60 cells+RGD (Arg-Gly-Asp, integrin consensus sequence, which partially prevents integrin dependent adhesion) • HL60 cells+anti-CD11a antibody • HL60 cells+anti-CD49d antibody • HL60 cells+anti-CD11a antibody+anti-CD49d antibody • HL60 cells+anti-CD11a antibody+anti-CD49d antibody+RGD
For each condition, HL60 cells were deposited separately and in identical amounts in 6 different wells containing complete RPMI medium and fixing cells which had adhered to the support. The ratio between tumour cells and hospicells was 5/1. After incubation for 24 hours at 37° C., the HL60 cells that had not adhered were recovered and counted. The percentage of HL60 cells adhering to the hospicells was then calculated for each condition.

[4] = test system: hospicells; experiment: Toxicity of the drug for hospicells in HL60/hospicell co-culture; assay type: cell-based
Protocol: as §1
This effect of “regrowth” of the cells is greater with aracytin than with daunorubicin, the difference being linked to the toxicity of daunorubicin for the hospicells.

Row | Compound | chemoresistance imparted by the hospicells to the OVCAR3 cells [1] | living HL60 cells fixed to the hospicells during treatment [2] | living HL60 cells on hospicells after the treatment is stopped [2] | effect of regrowth of the HL60 cells on hospicells, aracytin compared with daunorubicin ([2]; after the treatment is stopped) | living free HL60 cells during treatment [2] | growth of free HL60 cells after the treatment is stopped [2] | adhesion of the HL60 cells to the hospicells [3] | toxicity for the hospicells [4]
1 | COc1ccc(CCN(C)CCCC(C#N)(c2ccc(OC)c(OC)c2)C(C)C)cc1OC (stereo not drawn) [verapamil] | dramatically reduces | – | – | – | – | – | – | –
2 | Nc1ccn([C@@H]2O[C@H](CO)[C@@H](O)[C@@H]2O)c(=O)n1 [AraC, aracytin] | – | no longer detectable | living HL60 cells are identifiable | greater | die | do not grow | – | –
3 | Arg-Gly-Asp [RGD] | – | – | – | – | – | – | partially blocks | –
4 | COc1cccc2c1C(=O)c1c(O)c3c(c(O)c1C2=O)C[C@@](O)(C(C)=O)C[C@@H]3O[C@H]1C[C@H](N)[C@H](O)[C@H](C)O1 [DNR, daunorubicin] | – | no longer detectable | living HL60 cells are identifiable | – | die | do not grow | – | toxicity
